Row | Structure (SMILES) | melting point
1 | O=C(NCCCl)c1cc2c(Oc3ccc(Cl)cc3)cncc2s1 | 60 to 62 °C (dec.)
2 | Clc1ccc(Oc2cncc3sc(-c4ncon4)cc23)cc1 (hydrate or solvate) [Example 287, 4-(4-Chlorophenoxy)-2-(1,2,4-oxadiazol-3-yl)thieno[2,3-c]pyridine] | 151 to 152 °C
3 | Nc1nc(-c2cc3c(Oc4ccc(Cl)cc4)cncc3s2)no1 (hydrate or solvate) [Example 289, 3-[4-(4-Chlorophenoxy)thieno[2,3-c]pyridin-2-yl]-1,2,4-oxadiazol-5-amine] | 268 to 270 °C
4 | CCc1cc2c(Sc3ccccn3)ncnc2s1 [Example 3, 6-ethyl-4-(2-pyridinylthio)thieno[2,3-d]pyrimidine] | 76.5 to 79 °C
5 | CCc1cc2c(SCc3ccccc3)ncnc2s1 [Example 5, 6-ethyl-4-[(phenylmethyl)thio]thieno[2,3-d]pyrimidine] | 54 to 60 °C
6 | CCc1cc2c(Sc3nnc(C)s3)ncnc2s1 [Example 6, 6-ethyl-4-[(5-methyl-1,3,4-thiadiazol-2-yl)thio]thieno[2,3-d]pyrimidine] | 132 to 135 °C
7 | CCc1cc2c(Nc3nnc(C)s3)ncnc2s1 [Example 9, 6-ethyl-N-(5-methyl-1,3,4-thiadiazol-2-yl)thieno[2,3-d]pyrimidin-4-amine] | 277 to 280 °C
8 | Cc1ccc(Sc2ncnc3c(C)csc23)cc1 [Example 11, 7-methyl-4-[(4-methylphenyl)thio]thieno[3,2-d]pyrimidine] | 103 to 107 °C
9 | CSc1nnc(Sc2ncnc3c(C)csc23)s1 [Example 13, 7-methyl-4-[[5-(methylthio)-1,3,4-thiadiazol-2-yl]thio]thieno[3,2-d]pyrimidine] | 163 to 166 °C
10 | Cc1csc2c(Sc3nnc(N)s3)ncnc12 [Example 14, 4-[(5-amino-1,3,4-thiadiazol-2-yl)thio]-7-methylthieno[3,2-d]pyrimidine] | 221 to 223 °C
11 | NC(=O)c1cc2c(SC3CCCCC3)cncc2s1 [Example 57, 4-(cyclohexylthio)thieno[2,3-c]pyridine-2-carboxamide] | 205 to 207 °C
12 | NC(=O)c1sc2cncc(Oc3ccc(Cl)cc3)c2c1N [Example 131, 3-amino-4-(4-chlorophenoxy)thieno[2,3-c]pyridine-2-carboxamide] | 202 to 204 °C
13 | O=C(Nc1ccc(Cl)cc1)c1cnc2sccc2c1Cl [Example 133, 4-chloro-N-(4-chlorophenyl)thieno[2,3-b]pyridine-5-carboxamide] | 199 to 202 °C
14 | CCOC(=O)c1cnc2sccc2c1Sc1nnc(C)s1 [Example 134, ethyl 4-[(5-methyl-1,3,4-thiadiazol-2-yl)thio]thieno[2,3-b]pyridine-5-carboxylate] | 93 to 94 °C
15 | O=C(NCC(O)CO)c1cc2c(Oc3ccc(Br)cc3)cncc2s1 (stereo not drawn) [Example 149, 4-(4-Bromophenoxy)-N-(2,3-dihydroxypropyl)thieno[2,3-c]pyridine-2-carboxamide] | 76 to 77 °C
16 | NCCNC(=O)c1cc2c(Oc3ccc(Cl)cc3)cncc2s1 [Example 154, N-(2-Aminoethyl)-4-(4-chlorophenoxy)thieno[2,3-c]pyridine-2-carboxamide] | 111 to 114 °C
17 | CN(C)C(=O)c1cc2c(Oc3ccc(C(F)(F)F)cc3)cncc2s1 [Example 173, N,N-Dimethyl-4-[4-(trifluoromethyl)phenoxy]thieno[2,3-c]pyridine-2-carboxamide] | 74 to 76 °C
18 | NC(=O)c1cc2c(Oc3cccc(F)c3F)cncc2s1 [Example 178, 4-(2,3-Difluorophenoxy)thieno[2,3-c]pyridine-2-carboxamide] | 207 to 209 °C
19 | CNC(=O)c1cc2c(Oc3cccc(F)c3F)cncc2s1 [Example 179, 4-(2,3-Difluorophenoxy)-N-methylthieno[2,3-c]pyridine-2-carboxamide] | 169 to 171 °C
20 | CNC(=O)c1cc2c(Oc3cccc(F)c3)cncc2s1 [Example 180, 4-(3-Fluorophenoxy)-N-methylthieno[2,3-c]pyridine-2-carboxamide] | 194 to 195 °C

Now from value to compound:

Row | melting point | Structure (SMILES)
21 | 56 to 58 °C | CCc1cc2c(Sc3ccc(C)cc3)ncnc2s1 [Example 2, 6-ethyl-4-[(4-methylphenyl)thio]thieno[2,3-d]pyrimidine]
22 | 87.5 to 90 °C | CCOC(=O)C1(CC)Cc2c(Sc3ccc(C)cc3)ncnc2S1 (stereo not drawn) [Example 7, ethyl 6-ethyl-4-[(4-methylphenyl)thio]thieno[2,3-d]pyrimidine-6-carboxylate]
23 | 103 to 107 °C | CON(C)C(=O)c1cc2c(Sc3ccc(C)cc3)cncc2s1 [Example 22, N-methoxy-N-methyl-4-[(4-methylphenyl)thio]thieno[2,3-c]pyridine-2-carboxamide]
24 | 200 to 203 °C | CONC(=O)c1cc2c(Sc3ccc(C)cc3)cncc2s1 [Example 23, N-methoxy-4-[(4-methylphenyl)thio]thieno[2,3-c]pyridine-2-carboxamide]
25 | 208 to 211 °C | Cc1ccc(Sc2cncc3sc(C(=O)Nc4ccc(Cl)cc4)cc23)cc1 [Example 24, N-(4-chlorophenyl)-4-[(4-methylphenyl)thio]thieno[2,3-c]pyridine-2-carboxamide]
26 | 95 to 98 °C | CON=Cc1cc2c(Sc3ccc(C)cc3)cncc2s1 [Example 26, 4-[(4-methylphenyl)thio]thieno[2,3-c]pyridine-2-carboxaldehyde, O-methyloxime]
27 | 127 to 133 °C | Cc1ccc(Sc2cncc3sc(C=NOCc4ccccc4)cc23)cc1 [Example 27, 4-[(4-methylphenyl)thio]thieno[2,3-c]pyridine-2-carboxaldehyde, O-(phenylmethyl)oxime]
28 | 227 to 230 °C | Cc1ccc(Sc2cncc3sc(C=NOCC(=O)O)cc23)cc1 [Example 28, 2-[[[4-[(4-methylphenyl)thio]thieno[2,3-c]pyridin-2-ylmethylene]amino]oxy]acetic acid]
29 | 94 to 97 °C | Cc1ccc(Sc2cncc3sc(C=NOc4ccccc4)cc23)cc1 [Example 29, 4-[(4-methylphenyl)thio]thieno[2,3-c]pyridine-2-carboxaldehyde, O-phenyloxime]
30 | 209 to 210 °C | Cc1ccc(Sc2cncc3sc(C=NO)cc23)cc1 [Example 30, 4-[(4-methylphenyl)thio]thieno[2,3-c]pyridine-2-carboxaldehyde, oxime]
31 | 152 to 156 °C | Cc1ccc(Sc2cncc3sc(C=NOCC(N)=O)cc23)cc1 [Example 31, 2-[[[4-[(4-methylphenyl)thio]thieno[2,3-c]pyridine-2-ylmethylene]amino]oxy]acetamide]
32 | 134 to 138 °C | CC(=O)c1cc2c(Sc3ccc(C)cc3)cncc2s1 [Example 33, 1-[4-[(4-methylphenyl)thio]thieno[2,3-c]pyridin-2-yl]ethanone]
33 | 103 to 107 °C | Cc1ccc(Sc2cncc3sc(C(=O)c4ccccc4)cc23)cc1 [Example 34, 2-benzoyl-4-[(4-methylphenyl)thio]thieno[2,3-c]pyridine]
34 | 209 to 213 °C | CC(=NO)c1cc2c(Sc3ccc(C)cc3)cncc2s1 [Example 36, 1-[4-[(4-methylphenyl)thio]thieno[2,3-c]pyridin-2-yl]ethanone, oxime]
35 | 120 to 122 °C | Cc1ccc(Sc2cncc3sc(C(=O)NCC(O)CO)cc23)cc1 (stereo not drawn) [Example 37, N-(2,3-dihydroxypropyl)-4-[(4-methylphenyl)thio]thieno[2,3-c]pyridine-2-carboxamide]
36 | 181 to 183 °C | Cc1ccc(Sc2cncc3sc(C(N)=S)cc23)cc1 [Example 41, 4-[(4-methylphenyl)thio]thieno[2,3-c]pyridine-2-carbothioamide]
37 | 94 to 95 °C | Cc1ccc(Sc2cncc3sccc23)cc1 [Example 42, 4-[(4-methylphenyl)thio]thieno[2,3-c]pyridine]
38 | 170 to 172 °C | Cc1ccccc1Sc1cncc2sc(C(N)=O)cc12 [Example 48, 4-[(2-methylphenyl)thio]thieno[2,3-c]pyridine-2-carboxamide]
39 | 171 to 173 °C | Cc1cccc(Sc2cncc3sc(C(N)=O)cc23)c1 [Example 49, 4-[(3-methylphenyl)thio]thieno[2,3-c]pyridine-2-carboxamide]
40 | 192 to 194 °C | Cc1ccc(Sc2cncc3sc(C(N)=O)cc23)cc1C [Example 50, 4-[(3,4-dimethylphenyl)thio]thieno[2,3-c]pyridine-2-carboxamide]
41 | 177 to 179 °C | Cc1cc(C)cc(Sc2cncc3sc(C(N)=O)cc23)c1 [Example 51, 4-[(3,5-dimethylphenyl)thio]thieno[2,3-c]pyridine-2-carboxamide]
42 | 193 to 195 °C | Cc1ccc(Sc2cncc3sc(C(N)=O)cc23)c(C)c1 [Example 52, 4-[(2,4-dimethylphenyl)thio]thieno[2,3-c]pyridine-2-carboxamide]
43 | 219 to 221 °C | COc1ccc(Sc2cncc3sc(C(N)=O)cc23)cc1 [Example 56, 4-[(4-methoxyphenyl)thio]thieno[2,3-c]pyridine-2-carboxamide]
44 | 176 to 178 °C | NC(=O)/C=C/c1cc2c(Oc3ccc(Cl)cc3)cncc2s1 [Example 92, (E)-3-[4-(4-chlorophenoxy)thieno[2,3-c]pyridin-2-yl]-2-propenamide]
45 | 280 to 282 °C | Cc1ccc(Sc2ccnc3sc(C(N)=O)cc23)cc1 [Example 132D, 4-[(4-methylphenyl)thio]thieno[2,3-b]pyridine-2-carboxamide]
46 | 222 to 225 °C | NC(=O)CNC(=O)c1cc2c(Oc3ccc(Cl)cc3)cncc2s1 [Example 160, N-(2-Amino-2-oxoethyl)-4-(4-chlorophenoxy)thieno[2,3-c]pyridine-2-carboxamide]
47 | 93 to 95 °C | CN(C)C(=O)c1cc2c(Oc3ccc(Br)cc3)cncc2s1 [Example 172, 4-(4-Bromophenoxy)-N,N-dimethylthieno[2,3-c]pyridine-2-carboxamide]
48 | 185 to 187 °C | CCc1cc(Oc2cncc3sc(C(N)=O)cc23)ccc1Cl [Example 176, 4-(4-Chloro-3-ethylphenoxy)thieno[2,3-c]pyridine-2-carboxamide]

From US6579882B2, “Cell adhesion-inhibiting antiinflammatory compounds” (Abbott Laboratories, priority 1998, dated 2003)
